Laboratory results taken from the NIST ThermoML archive (doi:10.1021/je700406p).
Numbers after ± are expanded uncertainties.

Experiment: wn = mass fraction of the nth substance listed
Conditions: Liquid, Vibrating tube method

CC(C)(N)CO [2-amino-2-methylpropan-1-ol] + O
mass density (352.85 K, 12992 kPa, w1 = 0.2821): 967.1 ± 0.6 kg/m3
mass density (352.85 K, 13990 kPa, w1 = 0.2821): 967.5 ± 0.6 kg/m3
mass density (352.85 K, 14990 kPa, w1 = 0.2821): 968 ± 0.6 kg/m3
mass density (352.85 K, 15988 kPa, w1 = 0.2821): 968.4 ± 0.6 kg/m3
mass density (352.85 K, 16991 kPa, w1 = 0.2821): 968.8 ± 0.6 kg/m3
mass density (352.85 K, 17991 kPa, w1 = 0.2821): 969.2 ± 0.6 kg/m3
mass density (352.85 K, 18988 kPa, w1 = 0.2821): 969.6 ± 0.6 kg/m3
mass density (352.85 K, 19987 kPa, w1 = 0.2821): 970.1 ± 0.6 kg/m3
mass density (352.85 K, 20985 kPa, w1 = 0.2821): 970.5 ± 0.6 kg/m3
mass density (352.86 K, 500 kPa, w1 = 0.1997): 965 ± 0.5 kg/m3
mass density (352.86 K, 1000 kPa, w1 = 0.1997): 965.2 ± 0.5 kg/m3
mass density (352.86 K, 2000 kPa, w1 = 0.1997): 965.7 ± 0.5 kg/m3
mass density (352.86 K, 3000 kPa, w1 = 0.1997): 966.2 ± 0.5 kg/m3
mass density (352.86 K, 4000 kPa, w1 = 0.1997): 966.5 ± 0.5 kg/m3
mass density (352.86 K, 5000 kPa, w1 = 0.1997): 966.9 ± 0.5 kg/m3
mass density (352.86 K, 6000 kPa, w1 = 0.1997): 967.3 ± 0.5 kg/m3
mass density (352.86 K, 7000 kPa, w1 = 0.1997): 967.8 ± 0.5 kg/m3
mass density (352.86 K, 8000 kPa, w1 = 0.1997): 968.2 ± 0.5 kg/m3
mass density (352.86 K, 9009 kPa, w1 = 0.1997): 968.6 ± 0.5 kg/m3
mass density (352.86 K, 10002 kPa, w1 = 0.1997): 969.1 ± 0.5 kg/m3
mass density (352.86 K, 11001 kPa, w1 = 0.1997): 969.5 ± 0.5 kg/m3
mass density (352.86 K, 12000 kPa, w1 = 0.1997): 970 ± 0.5 kg/m3
mass density (352.86 K, 13000 kPa, w1 = 0.1997): 970.4 ± 0.5 kg/m3
mass density (352.86 K, 14000 kPa, w1 = 0.1997): 970.8 ± 0.5 kg/m3
mass density (352.86 K, 15003 kPa, w1 = 0.1997): 971.2 ± 0.5 kg/m3
mass density (352.86 K, 16001 kPa, w1 = 0.1997): 971.6 ± 0.5 kg/m3
mass density (352.86 K, 17001 kPa, w1 = 0.1997): 972.1 ± 0.5 kg/m3
mass density (352.86 K, 18002 kPa, w1 = 0.1997): 972.5 ± 0.5 kg/m3
mass density (352.86 K, 19001 kPa, w1 = 0.1997): 972.9 ± 0.5 kg/m3
mass density (352.86 K, 20029 kPa, w1 = 0.1997): 973.3 ± 0.5 kg/m3
mass density (352.86 K, 21004 kPa, w1 = 0.1997): 973.8 ± 0.5 kg/m3
mass density (352.86 K, 22004 kPa, w1 = 0.1997): 974.1 ± 0.5 kg/m3
mass density (352.86 K, 23000 kPa, w1 = 0.1997): 974.5 ± 0.5 kg/m3
mass density (352.86 K, 24004 kPa, w1 = 0.1997): 975 ± 0.5 kg/m3
mass density (352.87 K, 1039 kPa, w1 = 0.4976): 945 ± 1.2 kg/m3
mass density (352.87 K, 2018 kPa, w1 = 0.4976): 945.5 ± 1.2 kg/m3
mass density (352.87 K, 3005 kPa, w1 = 0.4976): 946 ± 1.2 kg/m3
mass density (352.87 K, 4018 kPa, w1 = 0.4976): 946.5 ± 1.2 kg/m3
mass density (352.87 K, 5000 kPa, w1 = 0.4976): 946.9 ± 1.2 kg/m3
mass density (352.87 K, 5997 kPa, w1 = 0.4976): 947.4 ± 1.2 kg/m3
mass density (352.87 K, 7007 kPa, w1 = 0.4976): 947.9 ± 1.2 kg/m3
mass density (352.87 K, 7999 kPa, w1 = 0.4976): 948.4 ± 1.2 kg/m3
mass density (352.87 K, 8994 kPa, w1 = 0.4976): 948.9 ± 1.2 kg/m3
mass density (352.87 K, 9996 kPa, w1 = 0.4976): 949.4 ± 1.2 kg/m3
mass density (352.87 K, 10996 kPa, w1 = 0.4976): 949.8 ± 1.2 kg/m3
mass density (352.87 K, 12002 kPa, w1 = 0.4976): 950.3 ± 1.2 kg/m3
mass density (352.87 K, 13000 kPa, w1 = 0.4976): 950.8 ± 1.2 kg/m3
mass density (352.87 K, 13993 kPa, w1 = 0.4976): 951.2 ± 1.2 kg/m3
mass density (352.87 K, 15004 kPa, w1 = 0.4976): 951.7 ± 1.2 kg/m3
mass density (352.87 K, 16002 kPa, w1 = 0.4976): 952.2 ± 1.2 kg/m3
mass density (352.87 K, 16989 kPa, w1 = 0.4976): 952.6 ± 1.3 kg/m3
mass density (352.87 K, 18011 kPa, w1 = 0.4976): 953.1 ± 1.3 kg/m3
mass density (352.87 K, 18989 kPa, w1 = 0.4976): 953.5 ± 1.3 kg/m3
mass density (352.87 K, 20010 kPa, w1 = 0.4976): 954 ± 1.3 kg/m3
mass density (352.87 K, 20989 kPa, w1 = 0.4976): 954.4 ± 1.3 kg/m3
mass density (362.73 K, 999 kPa, w1 = 0.2821): 954.1 ± 0.6 kg/m3
mass density (362.73 K, 1015 kPa, w1 = 0.4976): 936.3 ± 1.2 kg/m3
mass density (362.73 K, 1999 kPa, w1 = 0.2821): 954.5 ± 0.6 kg/m3
mass density (362.73 K, 2010 kPa, w1 = 0.4976): 936.7 ± 1.2 kg/m3
mass density (362.73 K, 2998 kPa, w1 = 0.2821): 955.1 ± 0.6 kg/m3
mass density (362.73 K, 3022 kPa, w1 = 0.4976): 937.3 ± 1.2 kg/m3
mass density (362.73 K, 3996 kPa, w1 = 0.2821): 955.4 ± 0.6 kg/m3
mass density (362.73 K, 3997 kPa, w1 = 0.4976): 937.8 ± 1.2 kg/m3
mass density (362.73 K, 4996 kPa, w1 = 0.2821): 955.9 ± 0.6 kg/m3
mass density (362.73 K, 5010 kPa, w1 = 0.4976): 938.3 ± 1.2 kg/m3
mass density (362.73 K, 5993 kPa, w1 = 0.2821): 956.3 ± 0.6 kg/m3
mass density (362.73 K, 6002 kPa, w1 = 0.4976): 938.8 ± 1.2 kg/m3
mass density (362.73 K, 6993 kPa, w1 = 0.2821): 956.8 ± 0.6 kg/m3
mass density (362.73 K, 6999 kPa, w1 = 0.4976): 939.3 ± 1.2 kg/m3
mass density (362.73 K, 7992 kPa, w1 = 0.4976): 939.8 ± 1.2 kg/m3
mass density (362.73 K, 8006 kPa, w1 = 0.2821): 957.3 ± 0.6 kg/m3
mass density (362.73 K, 8992 kPa, w1 = 0.2821): 957.7 ± 0.6 kg/m3
mass density (362.73 K, 8997 kPa, w1 = 0.4976): 940.3 ± 1.2 kg/m3
mass density (362.73 K, 9994 kPa, w1 = 0.2821): 958.1 ± 0.6 kg/m3
mass density (362.73 K, 10028 kPa, w1 = 0.4976): 940.9 ± 1.2 kg/m3
mass density (362.73 K, 10990 kPa, w1 = 0.4976): 941.3 ± 1.2 kg/m3
mass density (362.73 K, 10992 kPa, w1 = 0.2821): 958.6 ± 0.6 kg/m3
mass density (362.73 K, 11992 kPa, w1 = 0.2821): 959.1 ± 0.6 kg/m3
mass density (362.73 K, 11996 kPa, w1 = 0.4976): 941.8 ± 1.2 kg/m3
mass density (362.73 K, 12991 kPa, w1 = 0.2821): 959.5 ± 0.6 kg/m3
mass density (362.73 K, 13002 kPa, w1 = 0.4976): 942.3 ± 1.2 kg/m3
mass density (362.73 K, 13992 kPa, w1 = 0.2821): 959.9 ± 0.6 kg/m3
mass density (362.73 K, 13994 kPa, w1 = 0.4976): 942.8 ± 1.2 kg/m3
mass density (362.73 K, 14986 kPa, w1 = 0.4976): 943.3 ± 1.2 kg/m3
mass density (362.73 K, 14988 kPa, w1 = 0.2821): 960.4 ± 0.6 kg/m3
mass density (362.73 K, 15987 kPa, w1 = 0.2821): 960.8 ± 0.6 kg/m3
mass density (362.73 K, 15995 kPa, w1 = 0.4976): 943.8 ± 1.2 kg/m3
mass density (362.73 K, 16985 kPa, w1 = 0.4976): 944.3 ± 1.2 kg/m3
mass density (362.73 K, 16990 kPa, w1 = 0.2821): 961.3 ± 0.6 kg/m3
mass density (362.73 K, 18007 kPa, w1 = 0.4976): 944.8 ± 1.2 kg/m3
mass density (362.73 K, 18019 kPa, w1 = 0.2821): 961.7 ± 0.6 kg/m3
mass density (362.73 K, 18985 kPa, w1 = 0.2821): 962.1 ± 0.6 kg/m3
mass density (362.73 K, 18989 kPa, w1 = 0.4976): 945.2 ± 1.2 kg/m3
mass density (362.73 K, 19985 kPa, w1 = 0.2821): 962.6 ± 0.6 kg/m3
mass density (362.73 K, 19988 kPa, w1 = 0.4976): 945.7 ± 1.2 kg/m3
mass density (362.73 K, 21004 kPa, w1 = 0.4976): 946.2 ± 1.3 kg/m3
mass density (362.74 K, 532 kPa, w1 = 0.1997): 957.9 ± 0.5 kg/m3
mass density (362.74 K, 1001 kPa, w1 = 0.1997): 958 ± 0.5 kg/m3
mass density (362.74 K, 1014 kPa, w1 = 0.4002): 946.1 ± 0.8 kg/m3
mass density (362.74 K, 1992 kPa, w1 = 0.4002): 946.6 ± 0.8 kg/m3
mass density (362.74 K, 2000 kPa, w1 = 0.1997): 958.5 ± 0.5 kg/m3
mass density (362.74 K, 3000 kPa, w1 = 0.1997): 959 ± 0.5 kg/m3
mass density (362.74 K, 3010 kPa, w1 = 0.4002): 947.1 ± 0.8 kg/m3
mass density (362.74 K, 4000 kPa, w1 = 0.1997): 959.4 ± 0.5 kg/m3
mass density (362.74 K, 4009 kPa, w1 = 0.4002): 947.5 ± 0.8 kg/m3
mass density (362.74 K, 5000 kPa, w1 = 0.1997): 960.1 ± 0.5 kg/m3
mass density (362.74 K, 5001 kPa, w1 = 0.4002): 948 ± 0.8 kg/m3
mass density (362.74 K, 6000 kPa, w1 = 0.1997): 960.4 ± 0.5 kg/m3
mass density (362.74 K, 6003 kPa, w1 = 0.4002): 948.5 ± 0.8 kg/m3
mass density (362.74 K, 6999 kPa, w1 = 0.4002): 949 ± 0.8 kg/m3
mass density (362.74 K, 7000 kPa, w1 = 0.1997): 960.7 ± 0.5 kg/m3
mass density (362.74 K, 7990 kPa, w1 = 0.4002): 949.4 ± 0.9 kg/m3
mass density (362.74 K, 8001 kPa, w1 = 0.1997): 961.2 ± 0.5 kg/m3
mass density (362.74 K, 8995 kPa, w1 = 0.4002): 949.9 ± 0.9 kg/m3
mass density (362.74 K, 9009 kPa, w1 = 0.1997): 961.6 ± 0.5 kg/m3
mass density (362.74 K, 10004 kPa, w1 = 0.1997): 962.1 ± 0.5 kg/m3
mass density (362.74 K, 10039 kPa, w1 = 0.4002): 950.4 ± 0.9 kg/m3
mass density (362.74 K, 10986 kPa, w1 = 0.4002): 950.8 ± 0.9 kg/m3
mass density (362.74 K, 11001 kPa, w1 = 0.1997): 962.4 ± 0.5 kg/m3
mass density (362.74 K, 11991 kPa, w1 = 0.4002): 951.3 ± 0.9 kg/m3
mass density (362.74 K, 12999 kPa, w1 = 0.4002): 951.8 ± 0.9 kg/m3
mass density (362.74 K, 13999 kPa, w1 = 0.4002): 952.2 ± 0.9 kg/m3
mass density (362.74 K, 14990 kPa, w1 = 0.4002): 952.7 ± 0.9 kg/m3
mass density (362.74 K, 15993 kPa, w1 = 0.4002): 953.2 ± 0.9 kg/m3
mass density (362.74 K, 16984 kPa, w1 = 0.4002): 953.6 ± 0.9 kg/m3
mass density (362.74 K, 18005 kPa, w1 = 0.4002): 954.1 ± 0.9 kg/m3
mass density (362.74 K, 18993 kPa, w1 = 0.4002): 954.5 ± 0.9 kg/m3
mass density (362.74 K, 19978 kPa, w1 = 0.4002): 955 ± 0.9 kg/m3
mass density (362.74 K, 21014 kPa, w1 = 0.4002): 955.4 ± 0.9 kg/m3
